The values that follow are results of earlier work, collected in patent publication US20100120075A1, “Composition and a method for suppressing the luminescence intensity decline in a luciferin-luciferase reaction” (priority 2008, published 2010).

The test system of this data set is Gaussia luciferase.

As to “nonyl phenoxylpolyethoxylethanol [NP-40]”, the “suppression of reaction time-dependent decline in luminescent intensity” value (“suppression” below) was “suppressed”. For the compound “polyoxyethylene octyl phenyl ether [Triton X-100]”, the “suppression” value is recorded as “suppressed”. `CCCCCCCCCCCCOS(=O)(=O)[O-].[Na+]` [sodium dodecyl sulfate]: the “deactivation of the luciferase” value is reported as “deactivated the luciferase” and the “suppression” value is listed as “did not suppress the decline”.
